According to US20250099491A1, “PREVENTION OR TREATMENT OF CARDIOVASCULAR DISEASES WITH HIGH PENETRATION PRODRUGS OF ASPIRIN AND OTHER NSAIDS” (Techfields Inc., priority 2022, published 2025):

Tested on: patients with ischemic strokes
Assay: Phase 2 clinical study of spray in patients with ischemic strokes
Format: in vivo, human
Settings: for RICA (near-wall): Maximal IMT of right internal carotid artery / LCCA (far-wall): Maximal IMT of left common carotid artery / LCCA (near-wall): Maximal IMT of left common carotid artery / LICA (far-wall): Maximal IMT of left internal carotid artery / LICA (near-wall): Maximal IMT of left internal carotid artery / RCCA (far-wall): Maximal IMT of right common carotid artery / RCCA (near-wall): Maximal IMT of right common carotid artery / RICA (far-wall): Maximal IMT of right internal carotid artery: ultrasonography
Protocol: Each patient enrolled in Group A was administered the investigational drug in a double-blind manner for 16 weeks starting between 3 and 60 days after the onset of stroke symptoms (Day 1 of the study). The patients and/or their caregivers were instructed how to apply the investigational drug accurately so that patients or their caregivers would administer 20 sprays/dose of either the investigational drug or placebo twice daily (approximately every 12 hours) for a total daily dose of 280 mg of investigational drug. The 20 sprays of investigational drug were administered as follows: 4 sprays around the neck, 2 sprays to the left shoulder, 2 sprays to the right shoulder, 6 sprays to the chest, 3 sprays to the left leg, and 3 sprays to the right leg. Each spray was sprayed on a different area of the skin to reach maximum absorption. The patient would wait for at least 5 minutes to dress after the last spray so that the skin became completely dry.
Patients were asked to return to the study site at Weeks 4, 8, 12, and 16 for efficacy and safety assessments. After the Week 16 assessments had been performed, patients would start the open-label period of the study the next day and receive active treatment in an open-label manner through the end of the study (EOS) at Week 32. That is, patients who were receiving active treatment would continue to receive active treatment, and patients who were receiving placebo would switch to active treatment for the remaining 16 weeks of the study. Patients would receive only 1 dose of investigational drug on the Week 16 visit day. Patients would return to the study site at Week 24 and Week 32 (EOS) for efficacy and safety assessments. An Early Termination visit would occur if the patient was discontinued from the study prematurely. Patients would have a follow-up visit approximately 14 days after the Early Termination visit or the Week 32 (EOS) visit.
The spray bottle deposits […] of spray solution and 7 mg 2-(diethylamino)ethyl acetoxybenzoate free base per spray on the skin. Subjects were to apply each spray to a different skin area around the neck, chest, legs and arms based on the randomized dose level assigned.
The treatment was administered twice daily (approximately every 12 hours) starting on Day 1 of the study through the Week 16 visit. Each spray was sprayed on a different area of the skin to reach maximum absorption.
Group A administered the 20 sprays of investigational drug as follows: 4 sprays around the neck, 2 sprays to the left shoulder, 2 sprays to the right shoulder, 6 sprays to the chest, 3 sprays to the left leg, and 3 sprays to the right leg twice daily for a total of 40 sprays (280 mg)/day. Each spray was sprayed on a different area of the skin to reach maximum absorption.
(§1) Group B administered the investigational drug as follows: 2 sprays to the front of the neck, 1 spray to the left side of the neck, 1 spray to the right side of the neck, 6 sprays to the chest close to the neck twice daily for a total of 20 sprays (140 mg)/day. Each spray was sprayed on a different area of the skin to reach maximum absorption.
as §1, with “C” for “B”, “1 spray” for “2 sprays”, “2” for “6”, “chest” for “chest close to the neck”, “10” for “20”, “(70 mg/day).” for “(140 mg)/day.”
The primary efficacy endpoint is the mRS score at Week 16 dichotomized as ‘success’ (0 to 2) or failure (>2) for all randomized patients at Week 16.
The mRS score was assessed at screening; Day 1 (baseline); Weeks 4, 8, 12, 16, 24, and 32; Early Termination Visit (if applicable) and Follow-Up Visit.
The mRS score measures the patient's functional level of activity and is dichotomized as a favorable outcome (score=0-2) versus unfavorable (score […]). […]

[1] = 10 Sprays (70 mg/dose bid), Week 24
[2] = 10 Sprays (70 mg/dose bid), Week 32
[3] = 10 Sprays (70 mg/dose bid), baseline
[4] = 20 Sprays (140 mg/dose bid), Baseline
[5] = 20 Sprays (140 mg/dose bid), Week 4
[6] = 20 Sprays (140 mg/dose bid), Week 8
[7] = 20 Sprays (140 mg/dose bid), Week 16
[8] = 20 Sprays (140 mg/dose bid), Week 24
[9] = 20 Sprays (140 mg/dose bid), Week 32
[10] = 20 Sprays (140 mg/dose bid), baseline
[11] = during the study, all three doses

## CCN(CC)CCOC(=O)c1ccccc1OC(C)=O.Cl [Compound-1]
10 Sprays (70 mg/dose bid), Week 16
  RICA (near-wall): Maximal IMT of right internal carotid artery: 0.9 ± 0.5 mm
[1]
  Modified Rankin Scale Score (mRS): 1.5 ± 0.5
  National Institute of Health Stroke Scale: 1.6 ± 0.6
[2]
  Modified Rankin Scale Score (mRS): 1.4 ± 0.5
  National Institute of Health Stroke Scale: 1.3 ± 0.4
  LCCA (far-wall): Maximal IMT of left common carotid artery: 1.7 ± 0.8 mm
  LCCA (near-wall): Maximal IMT of left common carotid artery: 1.2 ± 0.6 mm
  LICA (far-wall): Maximal IMT of left internal carotid artery: 0.6 ± 0.3 mm
  LICA (near-wall): Maximal IMT of left internal carotid artery: 0.7 ± 0.4 mm
  RCCA (far-wall): Maximal IMT of right common carotid artery: 1.3 ± 0.8 mm
  RCCA (near-wall): Maximal IMT of right common carotid artery: 1.3 ± 0.7 mm
  RICA (far-wall): Maximal IMT of right internal carotid artery: 0.8 ± 0.2 mm
  RICA (near-wall): Maximal IMT of right internal carotid artery: 0.7 ± 0.4 mm
[3]
  Modified Rankin Scale Score (mRS): 3.5 ± 0.5
  National Institute of Health Stroke Scale: 5.9 ± 2.0
[4]
  LCCA (far-wall): Maximal IMT of left common carotid artery: 6.5 ± 2.0 mm
  LCCA (near-wall): Maximal IMT of left common carotid artery: 7.6 ± 1.6 mm
  LICA (far-wall): Maximal IMT of left internal carotid artery: 5.7 ± 1.7 mm
  LICA (near-wall): Maximal IMT of left internal carotid artery: 5.6 ± 1.7 mm
  RCCA (far-wall): Maximal IMT of right common carotid artery: 8.8 ± 2.3 mm
  RCCA (near-wall): Maximal IMT of right common carotid artery: 7.5 ± 1.8 mm
  RICA (far-wall): Maximal IMT of right internal carotid artery: 4.7 ± 1.6 mm
  RICA (near-wall): Maximal IMT of right internal carotid artery: 4.9 ± 1.3 mm
[5]
  Modified Rankin Scale Score (mRS): 2.1 ± 0.5
  National Institute of Health Stroke Scale: 4.6 ± 1.6
[6]
  Modified Rankin Scale Score (mRS): 1.8 ± 0.4
  National Institute of Health Stroke Scale: 3.0 ± 1.1
[7]
  Modified Rankin Scale Score (mRS): 1.4 ± 0.5
  National Institute of Health Stroke Scale: 1.9 ± 0.9
  LCCA (far-wall): Maximal IMT of left common carotid artery: 1.2 ± 0.6 mm
  LCCA (near-wall): Maximal IMT of left common carotid artery: 1.3 ± 0.5 mm
  LICA (far-wall): Maximal IMT of left internal carotid artery: 0.6 ± 0.4 mm
  LICA (near-wall): Maximal IMT of left internal carotid artery: 0.7 ± 0.3 mm
  RCCA (far-wall): Maximal IMT of right common carotid artery: 1.4 ± 0.3 mm
  RCCA (near-wall): Maximal IMT of right common carotid artery: 1.2 ± 0.5 mm
  RICA (far-wall): Maximal IMT of right internal carotid artery: 0.6 ± 0.2 mm
  RICA (near-wall): Maximal IMT of right internal carotid artery: 0.8 ± 0.3 mm
[8]
  Modified Rankin Scale Score (mRS): 1.3 ± 0.5
  National Institute of Health Stroke Scale: 1.4 ± 0.6
[9]
  Modified Rankin Scale Score (mRS): 1.3 ± 0.4
  National Institute of Health Stroke Scale: 1.1 ± 0.3
  LCCA (far-wall): Maximal IMT of left common carotid artery: 1.1 ± 0.7 mm
  LCCA (near-wall): Maximal IMT of left common carotid artery: 0.8 ± 0.5 mm
  LICA (far-wall): Maximal IMT of left internal carotid artery: 0.5 ± 0.3 mm
  LICA (near-wall): Maximal IMT of left internal carotid artery: 0.6 ± 0.3 mm
  RCCA (far-wall): Maximal IMT of right common carotid artery: 1.0 ± 0.5 mm
  RCCA (near-wall): Maximal IMT of right common carotid artery: 0.9 ± 0.4 mm
  RICA (far-wall): Maximal IMT of right internal carotid artery: 0.5 ± 0.3 mm
  RICA (near-wall): Maximal IMT of right internal carotid artery: 0.6 ± 0.5 mm
[10]
  Modified Rankin Scale Score (mRS): 3.6 ± 0.5
  National Institute of Health Stroke Scale: 6.1 ± 2.3
[11]
  Mean and median blood pressures: remained unchanged
  upper GI tract ulcer complication (bleeding episode, perforation, or gastric outlet obstruction): No notable
mild, all three doses
  skin irritation, total incidences: 6
Neck arteries by ultrasonography, spray vs placebo
  improvement of atherosclerosis: can reverse atherosclerosis
Spray vs placebo
  functional recovery post strokes (results of BI, words): can improve the functional recovery post strokes
  functional recovery post strokes (results of NIHSS, words): can improve the functional recovery post strokes
  functional recovery post strokes (results of mRS, words): can improve the functional recovery post strokes
Very mild, none appeared to be drug related, all three doses
  Gastrointestinal disorders, incidences in the study: 15
